Laboratory results from PubChem BioAssay AID651650 (Sanford-Burnham Center for Chemical Genomics, 2012).
Active and inactive are the calls of the source.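 How the source made its calls: active means mean IC50 below 20 µM in each of the two panels, so potent in both; inactive means the rest.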

What follows are compounds tested against Neuropilin-1 (Homo sapiens) (UniProt O14786) (assay: blockers of CendR peptide binding to NRP-1 – biochemical, FP and AlphaScreen panel, dose response (AID 651650)). Settings: NRP-1 b1b2 / RPARPAR peptide binding, FP or AlphaScreen; AlphaScreen, mean of runs.
Sequence of Neuropilin-1 (Homo sapiens) (O14786 whole entry, looked up): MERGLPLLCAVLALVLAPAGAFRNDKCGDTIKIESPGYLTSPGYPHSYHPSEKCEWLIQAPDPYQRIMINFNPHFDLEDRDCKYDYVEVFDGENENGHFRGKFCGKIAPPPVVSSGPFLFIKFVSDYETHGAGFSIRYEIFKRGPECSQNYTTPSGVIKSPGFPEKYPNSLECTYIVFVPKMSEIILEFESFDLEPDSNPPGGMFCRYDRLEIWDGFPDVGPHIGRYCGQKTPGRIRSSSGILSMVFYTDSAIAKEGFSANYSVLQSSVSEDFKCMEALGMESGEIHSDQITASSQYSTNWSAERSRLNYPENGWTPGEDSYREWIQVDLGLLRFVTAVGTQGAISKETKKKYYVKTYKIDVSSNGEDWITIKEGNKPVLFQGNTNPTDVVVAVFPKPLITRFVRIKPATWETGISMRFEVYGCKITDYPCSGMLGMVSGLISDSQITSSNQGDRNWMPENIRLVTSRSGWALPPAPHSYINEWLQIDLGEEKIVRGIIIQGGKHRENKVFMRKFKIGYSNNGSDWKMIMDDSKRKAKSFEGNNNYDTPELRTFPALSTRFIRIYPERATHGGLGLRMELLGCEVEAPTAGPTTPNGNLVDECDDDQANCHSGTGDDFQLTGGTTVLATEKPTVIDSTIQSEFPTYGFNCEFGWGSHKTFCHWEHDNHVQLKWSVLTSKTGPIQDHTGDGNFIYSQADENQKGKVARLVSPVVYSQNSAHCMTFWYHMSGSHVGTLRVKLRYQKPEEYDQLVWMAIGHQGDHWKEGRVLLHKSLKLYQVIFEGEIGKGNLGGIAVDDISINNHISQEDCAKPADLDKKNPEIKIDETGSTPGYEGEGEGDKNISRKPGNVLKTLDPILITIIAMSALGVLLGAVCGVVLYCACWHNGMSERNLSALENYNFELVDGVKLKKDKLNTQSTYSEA
With CCOC(=O)[C@]12CCCC=C1N(CCC1=CCCCC1)C(=O)[C@H](CC(=O)NCC13CC4CC(CC(C4)C1)C3)C2 the IC50 was > 100 µM (inactive). In the case of CCNS(=O)(=O)c1ccc(CCC(=O)O)cc1, the IC50 is reported as > 100 µM (inactive). Cc1ccc(COn2c(-c3ccc(Cl)cc3Cl)nc3ncccc32)cc1 was tested, and the IC50 was > 100 µM (inactive). For O=C(CCc1ccc(Oc2cc([N+](=O)[O-])cc([N+](=O)[O-])c2)cc1)N1CCCCCC1, the IC50 was 11.6 µM. With CCOc1ccc(-n2c(Cc3cc(=O)[nH]c(=O)[nH]3)nnc2SC(C)C)cc1 the IC50 was > 100 µM (inactive). CN1C[C@H](CO)C=C2c3cccc4[nH]cc(c34)C[C@H]21 showed an IC50 of 14.4 µM. For Cc1ccnc(N2CCC(C(=O)Nc3ccc4c(c3)OCCO4)CC2)n1, the IC50 was > 100 µM (inactive). For CC(OC(=O)c1ccco1)C(=O)Nc1nc(-c2ccccc2)cs1 (configuration not stated), the IC50 was > 100 µM (inactive). CCOC(=O)Cn1c(=O)n(Cc2ccco2)c(=O)c2ccc(C(=O)NC3CCCC3)cc21 was tested, and the IC50 was “inactive”. In the case of O=C(c1ccc(-c2cccc(Cl)c2)o1)N1CCN(c2ccc([N+](=O)[O-])cc2)CC1, the IC50 is reported as > 100 µM (inactive). CCCCC1CCC(C(=O)NC2CCS(=O)(=O)C2)CC1 (configuration not stated) was tested, and the IC50 was > 100 µM (inactive). Cc1ccccc1S(=O)(=O)Nc1nc2ccccc2nc1NCCO was tested, and the IC50 was > 100 µM (inactive). In the case of C=CCOc1ccc(C2/C(=C(\O)c3c(C)[nH]c(C(=O)OC)c3C)C(=O)C(=O)N2CCN(C)C)cc1 (configuration not stated), the IC50 is reported as > 100 µM (inactive). For O=C(Nc1cccc(S(=O)(=O)N2CCCCC2)c1)c1ccc([N+](=O)[O-])o1, the IC50 was > 100 µM (inactive). COc1ccc(C(=O)N2CCC(C)(C(=O)NS(=O)(=O)C3CC3)C2)cc1F (configuration not stated) was tested, and the IC50 was > 100 µM (inactive). CCn1c(N)c(C(=O)NCc2cccnc2)sc1=S was tested, and the IC50 was 13 µM. In the case of COc1ccc(/C=N/NC(=O)c2nn(-c3ccc(Cl)cc3)c(=O)c3c(N)scc23)cc1, the IC50 is reported as > 100 µM (inactive). For O=C(O)c1cccc(N2C(=O)c3cc([N+](=O)[O-])cc4cc([N+](=O)[O-])cc(c34)C2=O)c1, the IC50 was > 100 µM (inactive). With CCc1ccc(NC(=O)CCn2nc(C)c(S(=O)(=O)N3CCCCC3)c2C)cc1 the IC50 was > 100 µM (inactive). O=C(Cc1ccccc1Cl)N1CCOCC1 was tested, and the IC50 was > 100 µM (inactive). O=C(NCc1ccccc1)c1cccc(S(=O)(=O)N2CCCCC2)c1 was tested, and the IC50 was “inactive”. In the case of COc1ccc([C@H]2/C=C\CN(S(C)(=O)=O)[C@@H](C)C(=O)N2Cc2ccc(F)cc2)cc1, the IC50 is reported as > 100 µM (inactive). For COC(=O)[C@@]1(Cc2ccc(OC)cc2)[C@H]2c3cc(C(=O)N4CCCC4)n(CCN4CCOCC4)c3C[C@H]2CN1C(=O)c1ccccc1, the IC50 was > 100 µM (inactive). For COC(=O)c1ccn(C(=O)c2ccc(Cl)cc2)n1, the IC50 was > 100 µM (inactive). With CCO[C@@H]1OC(C(=O)NCc2ccccc2)=C[C@H](c2ccc(Br)cc2)[C@H]1CCCO the IC50 was “inactive”. NC1=NC[C@@H](Cc2ccc(O)cc2)N1CCCCC1CCCCC1 was tested, and the IC50 was > 100 µM (inactive). O=C(NCCCN1CCOCC1)c1ccc2c(=O)n(-c3ccc(F)c(Cl)c3)c(=S)[nH]c2c1 was tested, and the IC50 was > 100 µM (inactive). OCCCc1n[nH]c(=S)n1-c1ccccc1 was tested, and the IC50 was > 100 µM (inactive). In the case of CC(C)NC(=O)c1c(CSc2ccccc2)noc1C(=O)NCc1ccccc1, the IC50 is reported as > 100 µM (inactive). For CCOC(=O)C[C@H]1c2cc(C(F)(F)F)ccc2S(=O)(=O)N1Cc1ccccc1, the IC50 was > 100 µM (inactive). In the case of COCCNC(=S)N(CCc1c(C)[nH]c2ccc(F)cc12)Cc1cccs1, the IC50 is reported as > 100 µM (inactive). With CN(Cc1cnn(C)c1)C(=O)c1cc2ccccc2oc1=O the IC50 was > 100 µM (inactive). With COc1ccc(NC(=O)C(C)Sc2ccccc2)cc1 (configuration not stated) the IC50 was > 100 µM (inactive).

Same assay, conditions: NRP-1 b1b2 / RPARPAR peptide binding, FP or AlphaScreen; AlphaScreen, run 1; individual panel run IC50
Work on CCOC(=O)[C@]12CCCC=C1N(CCC1=CCCCC1)C(=O)[C@H](CC(=O)NCC13CC4CC(CC(C4)C1)C3)C2 yielded an IC50 of over 100 µM. CCNS(=O)(=O)c1ccc(CCC(=O)O)cc1 was tested, and the IC50 was over 100 µM. Compound Cc1ccc(COn2c(-c3ccc(Cl)cc3Cl)nc3ncccc32)cc1 has an IC50 of over 100 µM. For O=C(CCc1ccc(Oc2cc([N+](=O)[O-])cc([N+](=O)[O-])c2)cc1)N1CCCCCC1, the IC50 was 11.6 µM. Work on CCOc1ccc(-n2c(Cc3cc(=O)[nH]c(=O)[nH]3)nnc2SC(C)C)cc1 yielded an IC50 of over 100 µM. For CN1C[C@H](CO)C=C2c3cccc4[nH]cc(c34)C[C@H]21, the IC50 was 14.4 µM. In the case of Cc1ccnc(N2CCC(C(=O)Nc3ccc4c(c3)OCCO4)CC2)n1, the IC50 is reported as over 100 µM. Work on CC(OC(=O)c1ccco1)C(=O)Nc1nc(-c2ccccc2)cs1 (configuration not stated) yielded an IC50 of over 100 µM. For CCOC(=O)Cn1c(=O)n(Cc2ccco2)c(=O)c2ccc(C(=O)NC3CCCC3)cc21, the IC50 was 63.7 µM. O=C(c1ccc(-c2cccc(Cl)c2)o1)N1CCN(c2ccc([N+](=O)[O-])cc2)CC1 gave an IC50 of over 100 µM. For CCCCC1CCC(C(=O)NC2CCS(=O)(=O)C2)CC1 (configuration not stated), the IC50 was over 100 µM. For Cc1ccccc1S(=O)(=O)Nc1nc2ccccc2nc1NCCO, the IC50 was over 100 µM. With C=CCOc1ccc(C2/C(=C(\O)c3c(C)[nH]c(C(=O)OC)c3C)C(=O)C(=O)N2CCN(C)C)cc1 (configuration not stated) the IC50 was over 100 µM. Work on O=C(Nc1cccc(S(=O)(=O)N2CCCCC2)c1)c1ccc([N+](=O)[O-])o1 yielded an IC50 of over 100 µM. COc1ccc(C(=O)N2CCC(C)(C(=O)NS(=O)(=O)C3CC3)C2)cc1F (configuration not stated) gave an IC50 of over 100 µM. Work on CCn1c(N)c(C(=O)NCc2cccnc2)sc1=S yielded an IC50 of 13 µM. Work on COc1ccc(/C=N/NC(=O)c2nn(-c3ccc(Cl)cc3)c(=O)c3c(N)scc23)cc1 yielded an IC50 of over 100 µM. Compound O=C(O)c1cccc(N2C(=O)c3cc([N+](=O)[O-])cc4cc([N+](=O)[O-])cc(c34)C2=O)c1 has an IC50 of over 100 µM. CCc1ccc(NC(=O)CCn2nc(C)c(S(=O)(=O)N3CCCCC3)c2C)cc1 showed an IC50 of over 100 µM. For O=C(Cc1ccccc1Cl)N1CCOCC1, the IC50 was over 100 µM. O=C(NCc1ccccc1)c1cccc(S(=O)(=O)N2CCCCC2)c1 was tested, and the IC50 was 39.8 µM. COc1ccc([C@H]2/C=C\CN(S(C)(=O)=O)[C@@H](C)C(=O)N2Cc2ccc(F)cc2)cc1 was tested, and the IC50 was over 100 µM. Compound COC(=O)[C@@]1(Cc2ccc(OC)cc2)[C@H]2c3cc(C(=O)N4CCCC4)n(CCN4CCOCC4)c3C[C@H]2CN1C(=O)c1ccccc1 has an IC50 of over 100 µM. Work on COC(=O)c1ccn(C(=O)c2ccc(Cl)cc2)n1 yielded an IC50 of over 100 µM. CCO[C@@H]1OC(C(=O)NCc2ccccc2)=C[C@H](c2ccc(Br)cc2)[C@H]1CCCO gave an IC50 of 22.1 µM. Compound NC1=NC[C@@H](Cc2ccc(O)cc2)N1CCCCC1CCCCC1 has an IC50 of over 100 µM. Work on O=C(NCCCN1CCOCC1)c1ccc2c(=O)n(-c3ccc(F)c(Cl)c3)c(=S)[nH]c2c1 yielded an IC50 of over 100 µM. For OCCCc1n[nH]c(=S)n1-c1ccccc1, the IC50 was over 100 µM. With CC(C)NC(=O)c1c(CSc2ccccc2)noc1C(=O)NCc1ccccc1 the IC50 was over 100 µM. With CCOC(=O)C[C@H]1c2cc(C(F)(F)F)ccc2S(=O)(=O)N1Cc1ccccc1 the IC50 was over 100 µM. COCCNC(=S)N(CCc1c(C)[nH]c2ccc(F)cc12)Cc1cccs1 gave an IC50 of over 100 µM. Work on CN(Cc1cnn(C)c1)C(=O)c1cc2ccccc2oc1=O yielded an IC50 of over 100 µM. In the case of COc1ccc(NC(=O)C(C)Sc2ccccc2)cc1 (configuration not stated), the IC50 is reported as over 100 µM.

Same assay, conditions: NRP-1 b1b2 / RPARPAR peptide binding, FP or AlphaScreen; FP, mean of runs
With CCOC(=O)[C@]12CCCC=C1N(CCC1=CCCCC1)C(=O)[C@H](CC(=O)NCC13CC4CC(CC(C4)C1)C3)C2 the IC50 was > 95 µM (inactive). In the case of CCNS(=O)(=O)c1ccc(CCC(=O)O)cc1, the IC50 is reported as > 95 µM (inactive). For Cc1ccc(COn2c(-c3ccc(Cl)cc3Cl)nc3ncccc32)cc1, the IC50 was > 95 µM (inactive). For O=C(CCc1ccc(Oc2cc([N+](=O)[O-])cc([N+](=O)[O-])c2)cc1)N1CCCCCC1, the IC50 was > 95 µM (inactive). With CCOc1ccc(-n2c(Cc3cc(=O)[nH]c(=O)[nH]3)nnc2SC(C)C)cc1 the IC50 was > 95 µM (inactive). For CN1C[C@H](CO)C=C2c3cccc4[nH]cc(c34)C[C@H]21, the IC50 was > 95 µM (inactive). In the case of Cc1ccnc(N2CCC(C(=O)Nc3ccc4c(c3)OCCO4)CC2)n1, the IC50 is reported as > 95 µM (inactive). With CC(OC(=O)c1ccco1)C(=O)Nc1nc(-c2ccccc2)cs1 (configuration not stated) the IC50 was > 95 µM (inactive). For CCOC(=O)Cn1c(=O)n(Cc2ccco2)c(=O)c2ccc(C(=O)NC3CCCC3)cc21, the IC50 was > 95 µM (inactive). In the case of O=C(c1ccc(-c2cccc(Cl)c2)o1)N1CCN(c2ccc([N+](=O)[O-])cc2)CC1, the IC50 is reported as “inactive”. With CCCCC1CCC(C(=O)NC2CCS(=O)(=O)C2)CC1 (configuration not stated) the IC50 was > 95 µM (inactive). With Cc1ccccc1S(=O)(=O)Nc1nc2ccccc2nc1NCCO the IC50 was > 95 µM (inactive). With C=CCOc1ccc(C2/C(=C(\O)c3c(C)[nH]c(C(=O)OC)c3C)C(=O)C(=O)N2CCN(C)C)cc1 (configuration not stated) the IC50 was > 95 µM (inactive). O=C(Nc1cccc(S(=O)(=O)N2CCCCC2)c1)c1ccc([N+](=O)[O-])o1 was tested, and the IC50 was > 95 µM (inactive). In the case of COc1ccc(C(=O)N2CCC(C)(C(=O)NS(=O)(=O)C3CC3)C2)cc1F (configuration not stated), the IC50 is reported as > 95 µM (inactive). In the case of CCn1c(N)c(C(=O)NCc2cccnc2)sc1=S, the IC50 is reported as “inactive”.
